Here are results for two compounds from US9817000B2, “Method for identifying compounds that modulate a T2R taste receptor” (The Regents of the University of California, priority 1999, dated 2017).

The target in assay [1] is T1, mT2R5 (C57BL/6-allele) (Mus musculus, UniProt Q9JKT4, G155D/I85V/L294R/T101A/T44I).
T1 construct: expressed in transfected cells; host or cells: modified HEK-293 cells (PEAKrapid) expressing Gα15
T1 sequence (Q9JKT4 1-300 T44I/I85V/T101A/G155D/L294R): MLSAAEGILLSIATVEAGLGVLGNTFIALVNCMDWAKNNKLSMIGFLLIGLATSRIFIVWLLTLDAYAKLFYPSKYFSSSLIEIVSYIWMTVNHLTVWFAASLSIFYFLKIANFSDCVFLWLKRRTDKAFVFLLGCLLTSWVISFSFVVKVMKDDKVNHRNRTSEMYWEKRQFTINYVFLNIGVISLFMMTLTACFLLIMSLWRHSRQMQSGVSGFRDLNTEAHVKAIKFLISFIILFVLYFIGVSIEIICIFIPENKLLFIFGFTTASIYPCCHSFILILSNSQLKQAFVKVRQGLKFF
Description: FURA-2 [Ca2+]i imaging in HEK-293 cells expressing Gα15 and rho-mT2R5 from non-taster strain (C57BL/6 allele). It is filed as cell-based. The protocol:
A bridge overlap PCR extension technique was used to generate rho-T2R chimeras, which contain the first 39 amino acids of bovine rhodopsin in frame with human and rodent T2R coding sequences (Mehta and Singh, Biotechniques 26:1082-1086 (1999). All receptors were cloned into a pEAK10 mammalian expression vector (Edge Biosystems, MD). Modified HEK-293 cells (PEAK^rapid cells; Edge BioSystems, MD) were grown and maintained at 37° C. in UltraCulture medium (Bio Whittaker) supplemented with 5% fetal bovine serum, 100 μg/ml Gentamycin sulphate (Fisher), 1 μg/ml Amphotericin B and 2 mM GlutaMax I (Lifetechnologies). […]
Transfected cells were washed once in Hank's balanced salt solution with 1 mM sodium pyruvate and 10 mM HEPES, pH 7.4 (assay buffer), and loaded with 2 μM FURA-2 AM (Molecular Probes) for 1 h at room temperature. […] [Ca^2+]i changes were monitored using a Nikon Diaphot 200 microscope equipped with a 10×/0.5 fluor objective with the TILL imaging system (T.I.L.L Photonics GmbH). Acquisition and analysis of the fluorescence images used TILL-Vision software. Generally, [Ca^2+]i was measured for 80-120 s by sequentially illuminating cells for 200 ms at 340 nm and 380 nm and monitoring the fluorescence emission at 510 nm using a cooled CCD camera. The F340/F380 ratio was analyzed to measure [Ca^2+]i. […]

In assay [2] the test system is Cyx taster and non-taster mouse strains. As to conditions: cited from earlier work; for taste behaviour: non-taster strains.
Assay [3] deals with T2, hT2R4 (Homo sapiens, UniProt Q9NYW5).
T2 construct: Full-length hT2Rs were isolated by PCR amplification of genomic DNA; expressed in transfected cells; host or cells: HEK-293 cells (PEAKrapid) expressing Gα15
T2 sequence (Q9NYW5 1-299): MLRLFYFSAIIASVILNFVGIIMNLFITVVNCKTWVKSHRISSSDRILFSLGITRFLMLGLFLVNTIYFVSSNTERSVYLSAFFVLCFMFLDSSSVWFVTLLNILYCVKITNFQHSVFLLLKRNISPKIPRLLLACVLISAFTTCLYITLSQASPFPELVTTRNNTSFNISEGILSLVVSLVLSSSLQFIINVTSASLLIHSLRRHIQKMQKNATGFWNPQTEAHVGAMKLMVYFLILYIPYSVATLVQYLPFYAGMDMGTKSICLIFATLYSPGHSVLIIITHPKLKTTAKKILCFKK
Briefly: FURA-2 [Ca2+]i imaging in HEK-293 cells expressing Gα15 and rho-hT2R4. The assay is classed as cell-based. As to conditions: for [Ca2+]i response (FURA-2): 1.5 mM denatonium. An excerpt: In this system, receptor activation leads to increases in intracellular calcium [Ca2+]i, which can be monitored at the single cell level using the FURA-2 calcium-indicator dye (Tsien et al., Cell Calcium 6:145-157 (1985)). To test and optimize Gα15 coupling, two different GPCRs, a Gαi-coupled μ-opioid receptor (Reisine, Neuropharm. 34:463-472 (1995)) and a Gαq-coupled mGluR1 receptor (Masu et al., Nature 349:760-765 (1991)), were used. Transfection of these receptors into HEK-293 cell produced robust, agonist-selective, and Gα15-dependent Ca^2+ responses (FIG. 1).
A number of studies have shown that many GPCRs, in particular sensory receptors, require specific “chaperones” for maturation and targeting through the secretory pathway (Baker et al., Embo J 13:4886-4895 (1994); Dwyer et al., Cell 93:455-466 (1998)). Recently, Krautwurst et al. (Cell 95:917-926 (1998)) generated chimeric receptors consisting of the first 20 amino acids of rhodopsin and various rodent olfactory receptors. These were targeted to the plasma membrane and functioned as odorant receptors in HEK-293 cells. To determine whether rhodopsin sequences can also help target T2Rs to the plasma membra, rhodopsin-T2R chimeras (rho-T2Rs) were constructed. […] Similar results were obtained with 11 human and 16 rodent T2Rs (see below). To further enhance the level of T2R expression, rho-T2Rs were placed under the control of a strong EF-1α promoter, and introduced as episomal plasmids into modified HEK-293 cells expressing Gα15 (pEAKrapid cells).
A bridge overlap PCR extension technique was used to generate rho-T2R chimeras, which contain the first 39 amino acids of bovine rhodopsin in frame with human and rodent T2R coding sequences (Mehta and Singh, Biotechniques 26:1082-1086 (1999). All receptors were cloned into a pEAK10 mammalian expression vector (Edge Biosystems, MD). Modified HEK-293 cells (PEAK^rapid cells; Edge BioSystems, MD) were grown and maintained at 37° C. in UltraCulture medium (Bio Whittaker) supplemented with 5% fetal bovine serum, 100 μg/ml Gentamycin sulphate (Fisher), 1 μg/ml Amphotericin B and 2 mM GlutaMax I (Lifetechnologies). For transfection, cells were seeded onto matrigel coated 24-well culture plates or 35 mm recording chambers. After 24 h at 37° C., cells were washed in OptiMEM medium (Lifetechnologies) and transfected using LipofectAMINE reagent (Lifetechnologies). Transfection efficiencies were estimated by co-transfection of a GFP reporter plasmid, and were typically >70%. Immunofluoresence staining, and activity assays were performed 36-48 h after transfection.
Transfected cells were washed once in Hank's balanced salt solution with 1 mM sodium pyruvate and 10 mM HEPES, pH 7.4 (assay buffer), and loaded with 2 μM FURA-2 AM (Molecular Probes) for 1 h at room temperature. The loading solution was removed and cells were incubated in 200 μl of assay buffer for 1 h to allow the cleavage of the AM ester. For most experiments, 24-well tissue culture plates containing cells expressing a single rho-T2R were stimulated with 200 μl of a 2× tastant solution (see next section). [Ca^2+]i changes were monitored using a Nikon Diaphot 200 microscope equipped with a 10×/0.5 fluor objective with the TILL imaging system (T.I.L.L Photonics GmbH). Acquisition and analysis of the fluorescence images used TILL-Vision software. Generally, [Ca^2+]i was measured for 80-120 s by sequentially illuminating cells for 200 ms at 340 nm and 380 nm and monitoring the fluorescence emission at 510 nm using a cooled CCD camera. The F340/F380 ratio was analyzed to measure [Ca^2+]i.
Kinetics of activation and deactivation were measured using a bath perfusion system. Cells were seeded onto a 150 μl microperfusion chamber, and test solutions were pressure-ejected with a picospritzer apparatus (General Valve, Inc.). Flow-rate was adjusted to ensure complete exchange of the bath solution within 4-5 s. […]

Assay [4] concerns other hT2Rs. Description: FURA-2 [Ca2+]i imaging in control untransfected cells or cells transfected with other hT2Rs. It is filed as cell-based, human. How it is done: To determine whether other T2Rs are also activated by bitter compounds, 11 rhodopsin-tagged human T2R receptors were assayed by individually transfecting them into HEK-293 cells expressing Gα15. Each transfected line was tested against a battery of bitter and sweet tastants, including amino acids, peptides, and other natural and synthetic compounds.

Read-outs that look alike come from different tables or passages of the source.

Regarding `C[C@@H]1C[C@@H]([C@H](O)CC2CC(=O)NC(=O)C2)C(=O)[C@@H](C)C1` [cycloheximide], in assay [1], the concentration for a half-maximal effect (EC50) is around 2.3 µM and the “dose response compared with receptor from taster strains” value is listed as “shift in cycloheximide sensitivity”. In addition, the avoidance threshold in assay [2] (Cyx taster strains) is given as 0.25. Also, the taste behaviour result in assay [2] (at 8 μM) was “strongly avoid”. Also, the taste behaviour result in assay [2] (at 1) was “non-tasters”. In addition, in assay [2] (non-tasters vs taster strains), the decrease in sensitivity was around 8 fold. Besides, in assay [2] (rodents), the sensitivity threshold was around 0.25 µM.

Regarding `CC[N+](CC)(CC(=O)Nc1c(C)cccc1C)Cc1ccccc1` [denatonium], the results for the “[Ca2+]i response” value in assay [3] and in assay [4] were “significant transient increase in [Ca2+]i” and “not”, respectively. Further, the “[Ca2+]i response (FURA-2)” value in assay [3] (absence of Gα15) was “No increase in [Ca2+]i”; in assay [3] (with Gα15), “robust Gα15 dependent responses”. The “increase in [Ca2+]i on tastant stimulation” value in assay [3] (concentrations as in FIG. 4 (denatonium 5 mM)) was “increase in [Ca2+]i could be induced”. Moreover, in assay [3] (in µM), the “threshold of dose-dependent response” value was around 100.
